Test results from ChEMBL document CHEMBL1126923, “Novel inhibitors of prolyl 4-hydroxylase. 5. The intriguing structure-activity relationships seen with 2,2'-bipyridine and its 5,5'-dicarboxylic acid derivatives” (J Med Chem, 1993).

Legend:
[1] = tested on: Prolyl 4-hydroxylase (Gallus gallus); assay: Inhibition of prolyl 4-hydroxylase by chromatographic determination of [14C]-succinic acid on ion-exchange minicolumna at 50 ug/mL
[2] = tested on: Prolyl 4-hydroxylase (Gallus gallus); assay: Inhibition of prolyl 4-hydroxylase by chromatographic determination of [14C]-succinic acid on ion-exchange minicolumna at 100 ug/mL

| inhibition [1] [%] | inhibition [2] [%] | Structure (SMILES) |
| --- | --- | --- |
| 13 |  | CCOc1ccc(NC(=O)c2ccc(-c3ccccn3)nc2)cc1 |
|  | 13 | CCOc1ccc(NC(=O)c2ccc(-c3ccc(C(=O)Nc4ccc(OCC)cc4)cn3)nc2)cc1 |
